Measurements as given in patent US10670605B2, “Cysteine reactive probes and uses thereof” (The Scripps Research Institute, priority 2015, dated 2020).
Values belong to the compound of their own block, whether it stands above or below them.

Tests used:
Assay in all cases: Competitive isoTOP-ABPP, cell lysates
Format in all cases: binding
IRAK1 C608 (P51617) = IRAK1 C608 (P51617) (Homo sapiens, UniProt P51617); conditions: for R value (DMSO/fragment) / isoTOP-ABPP ratio, P51617_C608: 500 μM, invitro, ramos; for isoTOP-ABPP reactivity ratio, P51617_C608 / isoTOP-ABPP reactivity profile ratio, P51617_C608: 500 μm; for isoTOP-ABPP ratio (reactivity profile), P51617_C608: 500 μm in-vitro ramos
POU2F2 C346 (P09086) = target: T1, POU2F2 C346 (P09086) (Homo sapiens, UniProt P09086); conditions: for isoTOP-ABPP ratio, P09086_C346 / R value (DMSO/fragment): 500 μM
T1 sequence (P09086 1-479): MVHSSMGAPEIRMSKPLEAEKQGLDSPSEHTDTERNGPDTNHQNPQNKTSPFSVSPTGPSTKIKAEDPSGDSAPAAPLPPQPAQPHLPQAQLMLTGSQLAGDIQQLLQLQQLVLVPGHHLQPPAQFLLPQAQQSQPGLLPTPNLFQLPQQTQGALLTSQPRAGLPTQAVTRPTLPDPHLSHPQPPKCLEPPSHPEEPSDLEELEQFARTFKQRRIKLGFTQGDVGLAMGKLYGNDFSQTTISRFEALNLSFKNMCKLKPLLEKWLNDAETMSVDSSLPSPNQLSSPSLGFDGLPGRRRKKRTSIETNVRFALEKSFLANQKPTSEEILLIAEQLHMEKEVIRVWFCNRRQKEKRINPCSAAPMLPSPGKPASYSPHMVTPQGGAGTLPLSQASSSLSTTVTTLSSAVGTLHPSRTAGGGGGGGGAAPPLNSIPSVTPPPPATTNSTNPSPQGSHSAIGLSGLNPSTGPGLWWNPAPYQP

UBE2O C375 (Q9C0C9) = target: T2, UBE2O C375 (Q9C0C9) (Homo sapiens, UniProt Q9C0C9)
T2 sequence (Q9C0C9 1-1292): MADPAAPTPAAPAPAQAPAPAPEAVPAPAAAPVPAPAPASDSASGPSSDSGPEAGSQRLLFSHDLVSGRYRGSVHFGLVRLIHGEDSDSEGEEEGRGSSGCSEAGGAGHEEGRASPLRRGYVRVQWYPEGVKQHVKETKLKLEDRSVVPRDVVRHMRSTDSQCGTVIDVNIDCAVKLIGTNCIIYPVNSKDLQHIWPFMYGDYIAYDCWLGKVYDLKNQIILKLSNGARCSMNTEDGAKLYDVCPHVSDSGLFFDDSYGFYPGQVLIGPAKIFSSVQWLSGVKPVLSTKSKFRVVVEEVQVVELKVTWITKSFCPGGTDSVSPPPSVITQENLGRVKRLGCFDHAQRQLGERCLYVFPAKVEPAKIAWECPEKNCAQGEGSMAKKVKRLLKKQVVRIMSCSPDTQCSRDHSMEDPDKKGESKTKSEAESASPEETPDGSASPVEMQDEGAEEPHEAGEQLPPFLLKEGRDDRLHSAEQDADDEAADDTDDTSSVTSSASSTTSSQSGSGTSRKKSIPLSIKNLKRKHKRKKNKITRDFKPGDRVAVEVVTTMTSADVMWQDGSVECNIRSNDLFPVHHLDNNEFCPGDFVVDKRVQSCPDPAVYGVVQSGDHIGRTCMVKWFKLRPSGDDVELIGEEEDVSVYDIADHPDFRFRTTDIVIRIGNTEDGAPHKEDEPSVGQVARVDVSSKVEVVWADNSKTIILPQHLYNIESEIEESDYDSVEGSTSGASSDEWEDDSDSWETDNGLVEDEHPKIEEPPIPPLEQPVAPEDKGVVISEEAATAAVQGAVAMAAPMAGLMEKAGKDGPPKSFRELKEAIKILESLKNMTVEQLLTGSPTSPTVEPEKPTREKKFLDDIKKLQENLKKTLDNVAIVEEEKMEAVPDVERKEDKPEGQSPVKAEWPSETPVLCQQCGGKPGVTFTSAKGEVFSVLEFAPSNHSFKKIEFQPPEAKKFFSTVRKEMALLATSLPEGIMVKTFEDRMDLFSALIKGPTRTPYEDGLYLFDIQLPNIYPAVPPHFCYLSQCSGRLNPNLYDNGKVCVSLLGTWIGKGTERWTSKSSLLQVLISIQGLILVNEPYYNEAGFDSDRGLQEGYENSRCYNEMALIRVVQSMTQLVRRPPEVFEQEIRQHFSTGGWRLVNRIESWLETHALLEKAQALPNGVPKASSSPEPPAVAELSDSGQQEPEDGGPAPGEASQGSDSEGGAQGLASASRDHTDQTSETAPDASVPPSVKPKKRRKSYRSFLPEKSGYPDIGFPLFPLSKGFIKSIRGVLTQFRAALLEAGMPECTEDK

Chain of IRAK1 C608 (P51617) (P51617 whole entry, the tested form may be a part): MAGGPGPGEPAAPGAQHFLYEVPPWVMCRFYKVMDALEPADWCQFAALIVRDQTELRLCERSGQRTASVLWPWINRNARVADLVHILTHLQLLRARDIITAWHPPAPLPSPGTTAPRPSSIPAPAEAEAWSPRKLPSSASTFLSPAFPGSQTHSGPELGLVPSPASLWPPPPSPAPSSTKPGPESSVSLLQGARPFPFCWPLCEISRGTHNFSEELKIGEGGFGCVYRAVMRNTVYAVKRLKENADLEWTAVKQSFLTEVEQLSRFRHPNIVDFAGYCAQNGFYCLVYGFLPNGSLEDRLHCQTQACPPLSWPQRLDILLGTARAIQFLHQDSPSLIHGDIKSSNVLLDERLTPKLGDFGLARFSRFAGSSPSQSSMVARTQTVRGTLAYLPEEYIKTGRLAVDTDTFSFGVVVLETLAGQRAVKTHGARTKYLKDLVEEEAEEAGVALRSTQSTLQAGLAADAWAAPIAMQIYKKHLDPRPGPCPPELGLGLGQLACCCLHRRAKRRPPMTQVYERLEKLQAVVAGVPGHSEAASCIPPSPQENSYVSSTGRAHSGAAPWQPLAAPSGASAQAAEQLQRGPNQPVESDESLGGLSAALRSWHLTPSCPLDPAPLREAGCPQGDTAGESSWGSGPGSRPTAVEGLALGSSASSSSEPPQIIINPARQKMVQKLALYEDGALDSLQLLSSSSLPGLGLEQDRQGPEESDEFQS

- R value (DMSO/fragment) (IRAK1 C608 (P51617)): 2.5
Compound: COc1ccc2c(c1)CCCN2C(=O)CCl [compound 2]

- isoTOP-ABPP ratio, P51617_C608 (IRAK1 C608 (P51617)): 10.1
- isoTOP-ABPP ratio, P09086_C346 (POU2F2 C346 (P09086); invitro, ramos): 4.6
Compound: C=CC(=O)N(c1ccccc1)c1ccc(Br)cc1 [compound 5]

- isoTOP-ABPP ratio (reactivity profile), Q9C0C9_C375 (UBE2O C375 (Q9C0C9); 500 μm in-vitro ramos_231): 0.7
Compound: CC(C)CCOCCNC(=O)CCl [compound 27]

- R value (DMSO/fragment) (UBE2O C375 (Q9C0C9); 500 μM, in vitro, MDA-MB-231): 9.8
- R value (DMSO/fragment) (UBE2O C375 (Q9C0C9); 500 μM, invitro, ramos): 4.1
- R value (DMSO/fragment) (IRAK1 C608 (P51617)): 20.0
- R value (DMSO/fragment) (POU2F2 C346 (P09086); in vitro, MDA-MB-231): 1.7
- R value (DMSO/fragment) (POU2F2 C346 (P09086); invitro, ramos): 5.5
Compound: O=C(CCl)Nc1cc(C(F)(F)F)cc(C(F)(F)F)c1 [compound 3]

- isoTOP-ABPP ratio (reactivity profile), Q9C0C9_C375 (UBE2O C375 (Q9C0C9); 500 μm in-vitro ramos): 2.4
- isoTOP-ABPP ratio (reactivity profile), P09086_C346 (POU2F2 C346 (P09086); 500 μm in-vitro ramos_231): 0.9
Compound: O=C(CCl)NC12CC3CC(CC(C3)C1)C2 [compound 21]

- isoTOP-ABPP ratio, Q9C0C9_C375 (UBE2O C375 (Q9C0C9); 500 μM, invitro, ramos): 0.8
Compound: O=C(CCl)N1CCN(S(=O)(=O)c2ccccc2F)CC1 [compound 10]

- isoTOP-ABPP reactivity ratio, P51617_C608 (IRAK1 C608 (P51617); in-vitro_ramos_231): 1.1
Compound: Cc1ccc(C=C(C#N)C(=O)NCCN2CCOCC2)cc1 [compound 41]

- isoTOP-ABPP reactivity ratio, P51617_C608 (IRAK1 C608 (P51617); in-vitro_ramos): 2.9
- isoTOP-ABPP reactivity ratio, P51617_C608 (IRAK1 C608 (P51617); in-vitro_ramos_231): 5.8
Compound: CC(C)(C)c1cc(NC(=O)CCl)on1 [compound 32]

- isoTOP-ABPP reactivity profile ratio, P51617_C608 (IRAK1 C608 (P51617); in-vitro_ramos): 17.6
Compound: O=C(CCl)Nc1ccc(-c2ccccc2)cc1 [compound 52]

- isoTOP-ABPP ratio, P51617_C608 (IRAK1 C608 (P51617)): 1.3
- isoTOP-ABPP ratio, P09086_C346 (POU2F2 C346 (P09086); invitro, ramos): 1.7
Compound: Cn1cc(S(=O)(=O)N2CCOCC2)cc1C(=O)NC(=O)CCl [compound 11]

Compound: O=C(CCl)N1CCC(C(O)(c2ccccc2)c2ccccc2)CC1 [compound 20]
- isoTOP-ABPP ratio (reactivity profile), P09086_C346 (POU2F2 C346 (P09086); 500 μm in-vitro ramos): 2.3

- isoTOP-ABPP ratio (reactivity profile), Q9C0C9_C375 (UBE2O C375 (Q9C0C9); 500 μm in-vitro ramos): 1.4
- isoTOP-ABPP ratio (reactivity profile), P51617_C608 (IRAK1 C608 (P51617)): 1.5
- isoTOP-ABPP ratio (reactivity profile), P09086_C346 (POU2F2 C346 (P09086); 500 μm in-vitro ramos): 1.1
Compound: N#C/C(=C\c1cc(C(F)(F)F)cc(C(F)(F)F)c1)C(N)=O [compound 23]

- isoTOP-ABPP reactivity profile ratio, Q9C0C9_C375 (UBE2O C375 (Q9C0C9); 500 μm, in-vitro_ramos): 0.8
- isoTOP-ABPP reactivity profile ratio, P51617_C608 (IRAK1 C608 (P51617); in-vitro_ramos): 1.1
Compound: O=C(CCl)Nc1cccc2ncccc12 [compound 51]

- isoTOP-ABPP reactivity ratio, P51617_C608 (IRAK1 C608 (P51617); in-vitro_ramos): 2.4
Compound: C=CC(=O)Nc1cc(F)c(N2CCN(C(=O)OC(C)(C)C)CC2)c(F)c1 [compound 38]

- isoTOP-ABPP ratio (reactivity profile), P09086_C346 (POU2F2 C346 (P09086); 500 μm in-vitro ramos): 0.8
Compound: C=CC(=O)N(Cc1cccnc1)c1ccc(Oc2ccccc2)c(C(F)(F)F)c1 [compound 15]

- isoTOP-ABPP ratio (reactivity profile), P51617_C608 (IRAK1 C608 (P51617)): 1.3
- isoTOP-ABPP ratio (reactivity profile), P09086_C346 (POU2F2 C346 (P09086); 500 μm in-vitro ramos): 1.1
Compound: CC(Br)C(=O)Nc1cc(C(F)(F)F)cc(C(F)(F)F)c1 (stereo not shown) [compound 24]

- isoTOP-ABPP reactivity ratio, P09086_C346 (POU2F2 C346 (P09086); 500 μm, in-vitro_ramos): 0.6
Compound: C=CC(=O)N(Cc1cccnc1)c1cc(C(F)(F)F)cc(C(F)(F)F)c1 [compound 31]

- isoTOP-ABPP ratio (reactivity profile), P09086_C346 (POU2F2 C346 (P09086); 500 μm in-vitro ramos_231): 0.7
Compound: CC(Cl)C(=O)Nc1cc(C(F)(F)F)cc(C(F)(F)F)c1 (stereo not shown) [compound 25]

- isoTOP-ABPP ratio, P09086_C346 (POU2F2 C346 (P09086); invitro, ramos): 0.6
Compound: O=C(CCl)NCCc1c[nH]c2ccccc12 [compound 13]
